Laboratory results reported in the C3SDB collision cross section collection.

Experiments:
[1] = instrument: TW, calibrated with phosphatidylcholines (ESI+) and phosphatidylethanolamines (ESI-), doubly charged cardiolipins calibrated with poly-DL-…
[2] = [M+H]+; instrument: TW

CCCCC1CC1CCCCCCCC(=O)O[C@H](CO)COP(=O)(O)OCC(O)CO (stereo not given in full) [LPG(15:1)]
collision cross section (N2) ([1]; [M-H]-): 206.44 Å²

CCCCCCC1CC1CCCCCCCC(=O)OC[C@@H](O)COP(=O)(O)OCC(O)CO (stereo not given in full) [LPG(17:1)]
collision cross section (N2) ([1]; [M-H]-): 214.26 Å²

CCCCCCCC/C=C/CCCCCCCC(=O)OC[C@@H](O)COP(=O)(O)OCC(O)CO (stereo not given in full) [LPG(18:1)]
collision cross section (N2) ([1]; [M-H]-): 217.72 Å²

CCCCCCCCC1CC1CCCCCCCC(=O)OC[C@@H](O)COP(=O)(O)OCC(O)CO (stereo not given in full) [LPG(19:1)]
collision cross section (N2) ([1]; [M-H]-): 221.18 Å²

c1ccc([C@H]2CN3CCSC3=N2)cc1 [Levamisole]
collision cross section (N2) [2]: 138.2 Å²

CON(C)C(=O)Nc1ccc(Cl)c(Cl)c1 [Linuron]
collision cross section (N2) [2]: 149.63 Å²

CC#Cc1cc(C)nc(Nc2ccccc2)n1 [Mepanipyrim]
collision cross section (N2) [2]: 152.07 Å²

CS(=O)(=O)c1ccc(C(=O)C2C(=O)CCCC2=O)c([N+](=O)[O-])c1 [Mesotrione]
collision cross section (N2) [2]: 175.66 Å²

COCC(=O)N(c1c(C)cccc1C)C(C)C(=O)OC (stereo not given) [Metalaxyl]
collision cross section (N2) [2]: 159.96 Å²

COc1ccc2cc([C@H](C)C(=O)O)ccc2c1 [Naproxen]
collision cross section (N2) [2]: 147.1 Å²

O=C(O)c1cccnc1Nc1cccc(C(F)(F)F)c1 [Niflumic acid]
collision cross section (N2) [2]: 156.8 Å²

CCN(Cc1ccc(Cl)nc1)/C(=C/[N+](=O)[O-])NC [Nitenpyram]
collision cross section (N2) [2]: 160.32 Å²

CCCCCCCC/C=C\CCCCCCCC(=O)OC(COC(=O)CCCCCCCCCCCCCCCCC)COP(=O)(O)O (stereo not given) [PA(36:1)]
collision cross section (N2) ([1]; [M-H]-): 261.81 Å²

CCCCCCCCCCCCCCCC(=O)OCC(COP(=O)(O)OCCN)OC(=O)CCCCCCCCCCCCC (stereo not given) [PE(30:0)]
collision cross section (N2) ([1]; [M+H]+): 265.85 Å²
collision cross section (N2) ([1]; [M-H]-): 251.05 Å²

CCCCCC/C=C\CCCCCCCC(=O)OCC(COP(=O)(O)OCCN)OC(=O)CCCCCCCCCCCCC (stereo not given) [PE(30:1)]
collision cross section (N2) ([1]; [M+H]+): 260.6 Å²
collision cross section (N2) ([1]; [M-H]-): 248.78 Å²

CCCCCCCCCCCCCCCC(=O)OCC(COP(=O)(O)OCCN)OC(=O)CCCCCCCCCCCCCC (stereo not given) [PE(31:0)]
collision cross section (N2) ([1]; [M+H]+): 269.25 Å²
collision cross section (N2) ([1]; [M-H]-): 253.95 Å²

CCCCCCCCCCCCCCCC(=O)OCC(COP(=O)(O)OCCN)OC(=O)CCCCCCCC1CC1CCCCCC (stereo not given) [PE(33:1)]
collision cross section (N2) ([1]; [M+H]+): 273.6 Å²
collision cross section (N2) ([1]; [M-H]-): 259.91 Å²

CCCCCC/C=C\CCCCCCCC(=O)OCC(COP(=O)(O)OCCN)OC(=O)CCCCCCC/C=C\CCCCCCCC (stereo not given) [PE(34:2)]
collision cross section (N2) ([1]; [M+H]+): 271.97 Å²
collision cross section (N2) ([1]; [M-H]-): 261.72 Å²

CCCCCCCC/C=C\CCCCCCCC(=O)OCC(COP(=O)(O)OCCN)OC(=O)CCCCCCC/C=C\CCCCCCCC (stereo not given) [PE(36:2)]
collision cross section (N2) ([1]; [M+H]+): 276.82 Å²
collision cross section (N2) ([1]; [M-H]-): 269.17 Å²

CCCCCCCCCCCCCCCC(=O)OCC(COP(=O)(O)OCC(O)CO)OC(=O)CCCCCCCCCCCCC (stereo not given) [PG(30:0)]
collision cross section (N2) ([1]; [M+Na]+): 272.75 Å²
collision cross section (N2) ([1]; [M-H]-): 258.02 Å²

CCCCCCCCCCCCCCCC(=O)OCC(COP(=O)(O)OCC(O)CO)OC(=O)CCCCCCCCCCCCCCC (stereo not given) [PG(32:0)]
collision cross section (N2) ([1]; [M+Na]+): 278.8 Å²
collision cross section (N2) ([1]; [M-H]-): 263.91 Å²

CCCCCC/C=C\CCCCCCCC(=O)OCC(COP(=O)(O)OCC(O)CO)OC(=O)CCCCCCCCCCCCCCC (stereo not given) [PG(32:1)]
collision cross section (N2) ([1]; [M+Na]+): 275.15 Å²
collision cross section (N2) ([1]; [M-H]-): 262.68 Å²

CCCCCC/C=C\CCCCCCCC(=O)OCC(COP(=O)(O)OCC(O)CO)OC(=O)CCCCCCC/C=C\CCCCCCCC (stereo not given) [PG(34:2)]
collision cross section (N2) ([1]; [M+Na]+): 278.38 Å²
collision cross section (N2) ([1]; [M-H]-): 267.97 Å²

CCCCCC/C=C\CCCCCCCC(=O)OCC(COP(=O)(O)OCC(O)CO)OC(=O)CCCCCCCC1CC1CCCCCCCC (stereo not given) [PG(35:2)]
collision cross section (N2) ([1]; [M+Na]+): 281.82 Å²
collision cross section (N2) ([1]; [M-H]-): 271.85 Å²

CO/C=C(/C(=O)OC)c1ccccc1COc1cccc(C(F)(F)F)n1 [Picoxystrobin]
collision cross section (N2) [2]: 177.5 Å²

C[C@]12C=CC(=O)C=C1CC[C@@H]1[C@@H]2C(=O)C[C@@]2(C)[C@H]1CC[C@]2(O)C(=O)CO [Prednisone]
collision cross section (N2) [2]: 180.1 Å²

CC1=NNC(=O)N(/N=C/c2cccnc2)C1 [Pymetrozine]
collision cross section (N2) [2]: 150.71 Å²

CCCCCCCCSC(=O)Oc1cc(Cl)nnc1-c1ccccc1 [Pyridate]
collision cross section (N2) [2]: 199.9 Å²

O=C(O)c1c(Cl)ccc2cc(Cl)cnc12 [Quinclorac]
collision cross section (N2) [2]: 139.54 Å²
